Measured values as given in patent US9242984B2, “Pyrazolyl derivatives as Syk inhibitors” (Merck Sharp & Dohme Corp., priority 2012, dated 2016).

Each compound was assayed against T1, recombinant human Syk (GST-hSyk fusion protein) (Homo sapiens, UniProt P43405) (assay: Homogeneous Time-Resolved Fluorescence (HTRF) assay for the recombinant human Syk enzyme). Settings: 10-dose titration, 25 μM ATP; read-out: rhSYK IC50.
T1 construct: purchased Carna Biosciences 08-176
Type: biochemical
Method: Syk inhibition may be determined using the following assay protocol:
Homogeneous Time-Resolved Fluorescence (HTRF) Assay for the Recombinant Human Syk Enzyme:
A recombinant GST-hSyk fusion protein was used to measure potency of compounds to inhibit human Syk activity. The recombinant human GST-Syk (Carna Biosciences #08-176) (5 pM final concentration) was incubated with various concentrations of the inhibitor diluted in DMSO (0.1% final concentration) for 10 minutes at room temperature in 15 mM Tris-HCl (pH 7.5), 0.01% tween 20, 2 mM DTT in 384 well plate format. To initiate the reaction the biotinylated substrate peptide (250 nM final concentration) that contains the phosphorylation site for Syk was added with magnesium (5 mM final concentration) and ATP (25 μM final concentration). Final volume of the reaction was 10 μL. Phosphorylation of the peptide was allowed to proceed for 45 minutes at room temperature. To quench the reaction and detect the phosphorylated product, 2 nM of a Europium-anti-phosphotyrosine antibody (Perkin Elmer #AD0161) and 70 nM SA-APC (Perkin-Elmer #CR130-100) were added together in 15 mM Tris pH 7.5, 40 mM EDTA, 0.01% tween 20. Final volume of the quenching solution was 10 μL. The resulting HTRF signal was measured after 30 minutes on an EnVision (Perkin-Elmer) reader using a time-resolved fluorescence protocol. IC50 was determined following 10-dose titration (10 μM to 0.508 nM) and four parameter logistic curve fitting using the Merck Assay Data Analyzer. The rhSyk activity (IC50) is expressed as +++(100 nM or less), ++(between 100 and 1000 nM), +(between 1 and 10 μM).

For `Cc1cc(Nc2nccc(C(F)(F)F)n2)cc(-c2cnn3ccccc23)c1` [Example 1.1, N-(3-methyl-5-(pyrazolo[1,5-a]pyridin-3-yl)phenyl)-4-(trifluoromethyl)pyrimidin-2-amine], the IC50 was 65.8 nM.

Same assay, conditions: IC50 class; 10-dose titration, 25 μM ATP; read-out: rhSYK Activity

`Cc1cc(Nc2nccc(C(F)F)n2)cc(-c2cnn(CC3OC(=O)NC34CC4)c2)c1` (stereo not shown) [Example 3.92, 7-{[4-(3-{[4-(difluoromethyl)pyrimidin-2-yl]amino}-5-methylphenyl)-1H-pyrazol-1-yl]methyl}-6-oxa-4-azaspiro[2.4]heptan-5-one] and `Cc1cc(Nc2nccc(C(F)F)n2)cc(-c2cnn(CC3OC(=O)NC3(C)C)c2)c1` (stereo not shown) [Example 3.103, 5-{[4-(3-{[4-(difluoromethyl)pyrimidin-2-yl]amino}-5-methylphenyl)-1H-pyrazol-1-yl]methyl}-4,4-dimethyl-1,3-oxazolidin-2-one] cannot be ordered by IC50: at most 100 nM for the first, at most 100 nM for the second.

`CC(=O)Cn1cc(-c2cc(C)cc(Nc3nccc(C(F)(F)F)n3)c2)cn1` [Example 3.22, 1-[4-(3-methyl-5-{[4-(trifluoromethyl)pyrimidin-2-yl]amino}phenyl)-1H-pyrazol-1-yl]propan-2-one] and `CCC(O)Cn1cc(-c2cc(C)cc(Nc3nccc(C(F)(F)F)n3)c2)cn1` (racemic) [Example 5.9, 1-[4-(3-methyl-5-{[4-(trifluoro-methyl)pyrimidin-2-yl]amino}-phenyl)-1H-pyrazol-1-yl]butan-2-ol] cannot be ordered by IC50: at most 100 nM for the first, at most 100 nM for the second.

`Cc1cc(Nc2nccc(C3CC3)n2)cc(-c2cnn(CC3CNC(=O)O3)c2)c1` (stereo not shown) [Example 2.33, 5-[(4-{3-[(4-cyclopropylpyrimidin-2-yl)amino]-5-methylphenyl}-1H-pyrazol-1-yl)methyl]-1,3-oxazolidin-2-one] and `Cc1cc(Nc2nccc(C)n2)cc(-c2cnn(CC3OC(=O)NC3C(C)C)c2)c1` (single isomer, unassigned) [Example 23.15, 4-(1-methylethyl)-5-[(4-{3-methyl-5-[(4-methylpyrimidin-2-yl)amino]phenyl}-1H-pyrazol-1-yl)methyl]-1,3-oxazolidin-2-one] cannot be ordered by IC50: at most 100 nM for the first, at most 100 nM for the second.

`Cc1cc(Nc2cc(C3CC3)ccn2)nc(-n2cc(CCC(=O)O)cn2)c1` [Example 18.3, 3-(1-{6-[(4-cyclopropylpyridin-2-yl)amino]-4-methylpyridin-2-yl}-1H-pyrazol-4-yl)propanoic acid] and `Cc1cc(Nc2cc(C(F)F)ccn2)nc(-c2cnn(CC3(O)CCC3)c2)c1` [Example 29.2, 1-{[4-(6-{[4-(difluoromethyl)pyridin-2-yl]amino}-4-methylpyridin-2-yl)-1H-pyrazol-1-yl]methyl}cyclobutanol] cannot be ordered by IC50: at most 100 nM for the first, at most 100 nM for the second.

`Cc1cc(Nc2nccc(C(F)F)n2)cc(-c2cnn(CC3OC(=O)NC3CO)c2)c1` (single isomer, unassigned) [Example 33.3, 5-{[4-(3-{[4-(difluoromethyl)pyrimidin-2-yl]amino}-5-methylphenyl)-1H-pyrazol-1-yl]methyl}-4-(hydroxymethyl)-1,3-oxazolidin-2-one] and `Cc1cc(Nc2nccc(C(F)F)n2)cc(-c2cnn(CC3OC(=O)NC3C)c2)c1` (single isomer, unassigned) [Example 23.10, 5-{[4-(3-{[4-(difluoromethyl)pyrimidin-2-yl]amino}-5-methylphenyl)-1H-pyrazol-1-yl]methyl}-4-methyl-1,3-oxazolidin-2-one] cannot be ordered by IC50: at most 100 nM for the first, at most 100 nM for the second.

`Cc1cc(Nc2nccc(C)n2)cc(-c2cnn(CC3(C)CNC(=O)O3)c2)c1` (stereo not shown) [Example 3.122, 5-methyl-5-[(4-{3-methyl-5-[(4-methylpyrimidin-2-yl)amino]phenyl}-1H-pyrazol-1-yl)methyl]-1,3-oxazolidin-2-one] and `Cc1cc(Nc2nccc(C)n2)cc(-c2cnn(CC3OC(=O)NC3C(C)C)c2)c1` (single isomer, unassigned) [Example 23.16, 4-(1-methylethyl)-5-[(4-{3-methyl-5-[(4-methylpyrimidin-2-yl)amino]phenyl}-1H-pyrazol-1-yl)methyl]-1,3-oxazolidin-2-one] cannot be ordered by IC50: at most 100 nM for the first, at most 100 nM for the second.

`Cc1cc(Nc2nccc(C(F)(F)F)n2)cc(-c2cnn(CC3OC(=O)NC3C(C)C)c2)c1` (single isomer, unassigned) [Example 23.6, 4-(1-methylethyl)-5-{[4-(3-methyl-5-{[4-(trifluoromethyl)pyrimidin-2-yl]amino}phenyl)-1H-pyrazol-1-yl]methyl}-1,3-oxazolidin-2-one] and `Cc1cc(Nc2nccc(C(F)(F)F)n2)cc(-c2cnn(CC3COCCC3O)c2)c1` (stereo not shown) [Example 12.12, 3-{[4-(3-methyl-5-{[4-(trifluoromethyl)pyrimi-din-2-yl]amino}phenyl)-1H-pyrazol-1-yl]methyl}-tetrahydro-2H-pyran-4-ol] cannot be ordered by IC50: at most 100 nM for the first, at most 100 nM for the second.

`COc1ccnc(Nc2cc(C)cc(-c3cnn(C[C@H](O)C(=O)O)c3)c2)n1` [Example 11.2, (2S)-2-hydroxy-3-(4-{3-[(4-methoxy-pyrimidin-2-yl)amino]-5-methylphenyl}-1H-pyrazol-1-yl)-propanoic acid] and `Cc1cc(Nc2nccc(OC(C)C)n2)cc(-c2cnn(C[C@@H](O)C(=O)O)c2)c1` [Example 11.14, (2R)-2-hydroxy-3-[4-(3-methyl-5-{[4-(1-methylethoxy)-pyrimidin-2-yl]amino}-phenyl)-1H-pyrazol-1-yl]propanoic acid] cannot be ordered by IC50: at most 100 nM for the first, at most 100 nM for the second.

`Cc1ccnc(Nc2cccc(-c3cnn(CCC(N)=O)c3)c2)n1` [Example 2.10, 3-(4-{3-[(4-methylpyrimidin-2-yl)amino]phenyl}-1H-pyrazol-1-yl)propanamide] and `Cc1cc(Nc2ncccn2)cc(-c2cnn(Cc3ccc(C(N)=O)cc3)c2)c1` [Example 2.57, 4-({4-[3-methyl-5-(pyrimidin-2-ylamino)phenyl]-1H-pyrazol-1-yl}methyl)benzamide] cannot be ordered by IC50: 100 to 1000 nM for the first, at most 100 nM for the second.

`Cc1cc(Nc2nccc(C(F)(F)F)n2)cc(-c2cnn(CC3(O)CCOC(C)(C)C3)c2)c1` (stereo not shown) [Example 12.9, 2,2-dimethyl-4-{[4-(3-methyl-5-{[4-(trifluoro-methyl)pyrimidin-2-yl]amino}phenyl)-1H-pyrazol-1-yl]methyl}-tetrahydro-2H-pyran-4-ol] and `Cc1cc(Nc2nccc(C(F)(F)F)n2)cc(-c2cnn(C[C@@H](C)CO)c2)c1` [Example 3.4, (2r)-2-methyl-3-[4-(3-methyl-5-{[4-(trifluoromethyl)-pyrimidin-2-yl]-amino}phenyl)-1H-pyrazol-1-yl]-propan-1-ol] cannot be ordered by IC50: at most 100 nM for the first, at most 100 nM for the second.

`Cc1cc(Nc2nccc(C(F)(F)F)n2)cc(-c2cnn(C3CCCC(O)C3O)c2)c1` (stereo not shown) [Example 10.3] and `Cc1cc(Nc2nccc(C(F)(F)F)n2)cc(-c2cnn(C3CCC(C(=O)O)c4ccccc43)c2)c1` (stereo not shown) [Example 3.51, 4-[4-(3-methyl-5-{[4-(trifluoromethyl)pyrimidin-2-yl]amino}phenyl)-1H-pyrazol-1-yl]-1,2,3,4-tetrahydronaphthalene-1-carboxylic acid] cannot be ordered by IC50: at most 100 nM for the first, at most 100 nM for the second.

`Cc1cc(Nc2nccc(C(F)F)n2)cc(-c2cnn(CC3OC(=O)NC3(C)C)c2)c1` (stereo not shown) [Example 3.102, 5-{[4-(3-{[4-(difluoromethyl)pyrimidin-2-yl]amino}-5-methylphenyl)-1H-pyrazol-1-yl]methyl}-4,4-dimethyl-1,3-oxazolidin-2-one] and `Cc1cc(Nc2nccc(C(F)F)n2)cc(-c2cnn(CC(O)C(C)C)c2)c1` (stereo not shown) [Example 5.23, 1-[4-(3-{[4-(difluoromethyl)pyrimidin-2-yl]amino}-5-methylphenyl)-1H-pyrazol-1-yl]-3-methylbutan-2-ol] cannot be ordered by IC50: at most 100 nM for the first, at most 100 nM for the second.

`Cc1cc(Nc2nccc(C(F)F)n2)cc(-c2cnn(Cc3c[nH]cn3)c2)c1` [Example 3.110, 4-(difluoromethyl)-N-{3-[1-(1H-imidazol-4-ylmethyl)-1H-pyrazol-4-yl]-5-methylphenyl}pyrimidin-2-amine] and `Cc1cc(Nc2nccc(C(F)F)n2)cc(-c2cnn(CC(O)CN3CCCC3=O)c2)c1` (stereo not shown) [Example 5.33, 1-{3-[4-(3-{[4-(difluoromethyl)pyrimidin-2-yl]amino}-5-methylphenyl)-1H-pyrazol-1-yl]-2-hydroxypropyl}pyrrolidin-2-one] cannot be ordered by IC50: at most 100 nM for the first, at most 100 nM for the second.

`Cc1cc(Nc2nccc(C(F)F)n2)cc(-c2cnn(CCNC(=O)NCC3CCOCC3)c2)c1` [Example 27.17, 1-{2-[4-(3-{[4-(difluoromethyl)pyrimidin-2-yl]amino}-5-methylphenyl)-1H-pyrazol-1-yl]ethyl}-3-(tetrahydro-2H-pyran-4-ylmethyl)urea] and `Cc1cc(Nc2nccc(C(F)(F)F)n2)cc(-c2cnn(CCS(C)(=O)=O)c2)c1` [Example 3.48, N-(3-methyl-5-{1-[2-(methylsulfonyl)ethyl]-1H-pyrazol-4-yl}phenyl)-4-(trifluoromethyl)pyrimidin-2-amine] cannot be ordered by IC50: at most 100 nM for the first, at most 100 nM for the second.

`Cc1cc(Nc2ncc(F)c(C(F)F)n2)cc(-c2cnn(CC(C)(O)CO)c2)c1` (single isomer, unassigned) [Example 25.9, 3-[4-(3-{[4-(difluoromethyl)-5-fluoropyrimidin-2-yl]amino}-5-methylphenyl)-1H-pyrazol-1-yl]-2-methylpropane-1,2-diol] and `Cc1cc(Nc2nccc(C(F)(F)F)n2)cc(-c2cnn3ccccc23)c1` [Example 1.1, N-(3-methyl-5-(pyrazolo[1,5-a]pyridin-3-yl)phenyl)-4-(trifluoromethyl)pyrimidin-2-amine] cannot be ordered by IC50: at most 100 nM for the first, at most 100 nM for the second.
